# Data: US20240197691A1, “TACROLIMUS COMPOSITIONS AND METHODS OF USE” (CN2 THERAPEUTICS, INC., priority 2022, published 2024)
# Several values for one entry are separate records, joined by “and”; a condition that tells them apart may be missing. Equal entries are not always repeated.
# How the values were obtained:
# [1] = Forced degradation (thermal, acidic, basic, oxidative, UV); format: physicochemical
# Method: Forced degradation of the drug product by thermal, acidic, basic, oxidative and UV stress conditions was performed. Forced degradation for the thermal, acidic and oxidative conditions were performed at 40° C., as it was anticipated that the drug would be stable under these conditions, based on its structure. UV and basic conditions were performed at ambient conditions. The drug product is most susceptible to basic stress conditions, and to a lesser extent is susceptible to UV and oxidative conditions. A summary of all the degradation peaks as a function of the stress condition can be found in Table 28.
# [2] = pH 5
# [3] = Gamma irradiation of Tacrolimus; format: physicochemical
# Description: In certain embodiments, the composition can be irradiated before administration to a subject. For example, at least one component of the composition, such as, for example, tacrolimus, can undergo gamma irradiation before the final composition is created or the final composition can undergo gamma irradiation. In certain embodiments, the composition can be irradiated at a dose ranging from about 1 kilo-Gray (kGy) to about 100 kGy, preferably about 10 kGy to about 75 kGy, most preferably about 15 kGy to about 40 kGy.
# The composition can be irradiated at a dose ranging from about 1 kilo-Gray (kGy) to about 100 kGy, preferably about 10 kGy to about 75 kGy, most preferably about 15 kGy to about 40 kGy (Table 36).
# [4] = reported; cited from earlier work
# [5] = Contact angle on parafilm; format: physicochemical; settings: 20 μL on parafilm, ambient temperature
# Method: The Theta Lite Optical Tensiometer, Dynamic Contact Angle Measurement, 20 μL sample size was used to measure the contact angle of the tacrolimus compositions of parafilm of 73.50 and 73.20. The tacrolimus composition has better wettability on the hydrophobic surface of parafilm when compared to water (97.90 and 99.90).
# [6] = Surface tension (pendant drop); format: physicochemical; settings: Theta Lite Optical Tensiometer, 5 μL
# Method: The Theta Lite Optical Tensiometer, Pendant drop Method, 5 μL sample size was used to measure the surface tension of the tacrolimus compositions.
molecule,measurement,setting,value
C=CC[C@@H]1/C=C(\C)C[C@H](C)C[C@H](OC)[C@H]2O[C@@](O)(C(=O)C(=O)N3CCCC[C@H]3C(=O)O[C@H](/C(C)=C/[C@@H]3CC[C@@H](O)[C@H](OC)C3)[C@H](C)[C@@H](O)CC1=O)[C@H](C)C[C@@H]2OC.O [Tacrolimus],"Degradant at RRT 0.52, Area %","[1]; Acid, 72h (40° C.)",0.52 (0.47%)
same,"Degradant at RRT 1.32, Area %","[1]; Acid, 72h (40° C.)",1.32 (0.09%)
same,"Degradant at RRT 1.36, Area %","[1]; Acid, 72h (40° C.)",1.36 (0.07%)
same,"Degradant at RRT 0.39, Area %","[1]; Base, 5 min (ambient)",0.39 (1.52%)
same,"Degradant at RRT 0.52, Area %","[1]; Base, 5 min (ambient)",0.52 (27.62%)
same,"Degradant at RRT 0.79, Area %","[1]; Base, 5 min (ambient)",0.79 (0.97%)
same,"Degradant at RRT 1.28, Area %","[1]; Base, 5 min (ambient)",1.28 (0.20%)
same,"Degradant at RRT 1.32, Area %","[1]; Base, 5 min (ambient)",1.32 (3.02%)
same,"Degradant at RRT 1.35, Area %","[1]; Base, 5 min (ambient)",1.35 (2.37%)
same,"Degradant at RRT 0.43, Area %","[1]; Peroxide, 48 h (40° C.)",0.43 (2.03%)
same,"Degradant at RRT 1.18, Area %","[1]; Peroxide, 48 h (40° C.)",1.18 (0.17%)
same,"Degradant at RRT 1.20, Area %","[1]; Peroxide, 48 h (40° C.)",1.20 (0.05%)
same,"Degradant at RRT 1.25, Area %","[1]; Peroxide, 48 h (40° C.)",1.25 (0.35%)
same,"Degradant at RRT 1.27, Area %","[1]; Peroxide, 48 h (40° C.)",1.27 (0.16%)
same,"Degradant at RRT 1.29, Area %","[1]; Peroxide, 48 h (40° C.)",1.29 (0.10%)
same,"Degradant at RRT 1.33, Area %","[1]; Peroxide, 48 h (40° C.)",1.33 (0.06%)
same,"Degradant at RRT 1.44, Area %","[1]; Peroxide, 48 h (40° C.)",1.44 (0.08%)
same,"Degradant at RRT 0.43, Area %","[1]; Thermal, 72 h (40° C.)",0.43 (0.96%)
same,"Degradant at RRT 0.38, Area %","[1]; UV, 72 h (ambient)",0.38 (0.36%)
same,"Degradant at RRT 0.45, Area %","[1]; UV, 72 h (ambient)",0.45 (0.88%)
same,"Degradant at RRT 0.53, Area %","[1]; UV, 72 h (ambient)",0.53 (3.07%)
same,"Degradant at RRT 0.58, Area %","[1]; UV, 72 h (ambient)",0.58 (0.40%)
same,"Degradant at RRT 1.03, Area %","[1]; UV, 72 h (ambient)",1.03 (1.30%)
same,"Degradant at RRT 1.10, Area %","[1]; UV, 72 h (ambient)",1.10 (0.94%)
same,"Degradant at RRT 1.13, Area %","[1]; UV, 72 h (ambient)",1.13 (2.90%)
same,"Degradant at RRT 1.17, Area %","[1]; UV, 72 h (ambient)",1.17 (5.21%)
same,"Degradant at RRT 1.21, Area %","[1]; UV, 72 h (ambient)",1.21 (13.81%)
same,Solubility of Tacrolimus in the supernatant,[2],≤ 3.2 µg/g
same,% impurities,[3]; 15 kGy solid,0.82%
same,Total [Tac] in sample measured,[3]; 15 kGy solid,0.96 mg/g
same,% impurities,[3]; 25 kGy solid,0.88%
same,Total [Tac] in sample measured,[3]; 25 kGy solid,0.92 mg/g
same,% impurities,[3]; 40 kGy solid,0.91%
same,Total [Tac] in sample measured,[3]; 40 kGy solid,0.91 mg/g
same,% impurities,[3]; Control solid,0.56%
same,Total [Tac] in sample measured,[3]; Control solid,0.99 mg/g
same,log P,[4],3.3
Water,Contact angle,[5],97.9 ° and 99.9 °
same,Surface Tension,[6],72 mN/m
